According to publication PMC9875641, “Ophthalmic Solution of Smart Supramolecular Peptides to Capture Semaphorin 4D against Diabetic Retinopathy” (Advanced Science, 2022):

Tests used:
[1] = Zeta potential of SSPs; type: physicochemical; conditions: self-assembled SSP under aqueous condition
From the text: Artificial tears containing SSPs were developed and dropped into eyes. SSPs accumulated in the vitreous cavity. To examine the behavior of SSPs monomer in artificial tear, it was fast injected into water. Under the aqueous condition, the SSPs self‐assembled into spherical NPs or nanorods, a function of its to C16 and FFVLK domains with a hydrophobic unit. The morphology of SSP‐1 was NPs with the average size of 44.8 ± 2.9 nm. […] Besides, the zeta potential of SSP‐1 and SSP‐2 was positive charged with the value of 45.7 and 40.2 mV, respectively (Figure 3C). The positive charged SSPs penetrate blood‐eye barrier well.
In addition, KLVFF sequence, a sheet structure with strong hydrogen‐bonding was introduced into SSPs, we could distinctly observe the secondary structure of SSPs by circular dichroism (CD) spectroscopy. […] The percentage of β‐sheet after incubation with sSema4D in SSP‐1 and SSP‐2 were 85.6% and 42.3%, respectively, indicative of a highly organized packing of NFs in SSP‐1. […] The high percentage of β‐sheet structure in NFs stabilized the formation of nanostructure networks, due to its strong hydrogen‐bonding KLVFF sequence. Moreover, we carried out the cytotoxicity of SSP‐1 and SSP‐2 by using a standard CCK‐8 (Figure 3D). […] Finally, we investigated the recognition of sSema4D and SSP‐1 and SSP‐2 by confocal laser scanning microscope (CLSM).

[2] = target: T1, Cy5-labeled sSema4D (Homo sapiens, UniProt Q92854); experiment: CLSM recognition and capture of sSema4D; type: binding; conditions: FITC-labeled SSP with Cy5-labeled sSema4D, 6 h
T1 construct: purchased Novoprotein Ltd. (Suzhou, China)
T1 sequence (Q92854 22-734 limits assumed): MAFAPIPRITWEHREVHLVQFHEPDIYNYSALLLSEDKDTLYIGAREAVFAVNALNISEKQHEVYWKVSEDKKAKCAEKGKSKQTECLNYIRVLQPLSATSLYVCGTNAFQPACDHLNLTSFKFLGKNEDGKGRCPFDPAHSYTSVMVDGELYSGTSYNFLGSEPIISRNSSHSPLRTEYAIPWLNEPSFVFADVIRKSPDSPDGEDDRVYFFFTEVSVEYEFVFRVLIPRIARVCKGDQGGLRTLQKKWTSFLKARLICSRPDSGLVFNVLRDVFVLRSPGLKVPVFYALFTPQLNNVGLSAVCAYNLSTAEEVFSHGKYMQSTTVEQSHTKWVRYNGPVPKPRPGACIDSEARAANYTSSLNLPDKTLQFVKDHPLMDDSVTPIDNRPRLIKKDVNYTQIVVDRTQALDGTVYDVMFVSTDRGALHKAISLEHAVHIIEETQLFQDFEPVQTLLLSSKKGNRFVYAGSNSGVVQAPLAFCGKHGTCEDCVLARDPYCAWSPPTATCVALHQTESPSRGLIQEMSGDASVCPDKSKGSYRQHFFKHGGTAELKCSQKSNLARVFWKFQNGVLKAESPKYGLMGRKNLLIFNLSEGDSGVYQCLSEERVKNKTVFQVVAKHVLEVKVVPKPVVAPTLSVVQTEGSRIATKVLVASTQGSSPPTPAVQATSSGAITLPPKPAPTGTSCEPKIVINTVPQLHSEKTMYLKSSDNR
Procedure: FITC‐labeled SSP‐1 or SSP‐2 and Cy5‐labeled sSema4D proteins were synthesized. Cy5‐labeled sSema4D were incubated with FITC‐labeled SSP‐1 and SSP‐2 nanostructure solutions for 6 h, respectively. […]
a resolution of 1.0 nm and a scanning speed of 300 nm/min. For each measurement, three spectra were collected and averaged.
CLSM observation. Sema4D protein was purchased from Novoprotein Ltd. (Suzhou, China). Sema4D protein cultured with SSP-1 or SSP-2 nanomaterials (30 μM) for 4 h were imaged using a Zeiss LSM710 confocal laser scanning microscope
(Ultra-VIEWVox, PerkinElmer). The parameters of confocal laser scanning microscope was a 40× objective lens.
Patient. Vitreous humor samples of DR patients were obtained immediately before intravitreal injection of anti-VEGF agents. Control vitreous humor samples were collected from nondiabetic patients receiving surgery for idiopathic macular hole. All of the human vitreous humor samples were collected based on informed consent. The vitreous samples were centrifuged at 4°C, and the supernatants were aliquoted into several sterile tubes and stored at -80°C. The procedure was approved by an ethics committee of Tongji Medical College, Huazhong University of Science and Technology, and strictly followed the Declaration of Helsinki guidelines.
Cell culture. […]

[3] = system: retina; experiment: Biosafety in the retina after intraocular injection; type: in vivo, mouse; conditions: for pathological changes in the retina (HE staining): 30 d after intraocular injection; for abnormalities in retinal pigment epithelium, rod and cone layer, outer nuclear layer and retinal ganglion cells (electron microscopy): mouse, in vivo
From the text: After 30 d of SSP‐1 and SSP‐2 intraocular injection, the biosafety of SSP‐1 and SSP‐2 was systematically studied by H&E staining and electron microscopy.

Substance | zeta potential [1] | recognition and trapping of sSema4D (merge images) [2] | pathological changes in the retina (HE staining) [3] | abnormalities in retinal pigment epithelium, rod and cone layer, outer nuclear layer and retinal ganglion cells (electron microscopy) [3]
C16‐FFVLK‐KNKAAKG [SSP-2, smart supramolecular peptide, C16‐FFVLK‐KNKAAKG, self-assembling, captures sSema4D] | 40.2 mV | could completely cover the sSema4D | no significant pathological changes | no significant abnormalities
C16‐FFVLK‐KQKRPRH [SSP-1, smart supramolecular peptide, C16‐FFVLK‐KQKRPRH, self-assembling, captures sSema4D] | 45.7 mV | could completely cover the sSema4D | no significant pathological changes | no significant abnormalities
